This is an account of results in US9278925B2, “Substituted 3-(biphenyl-3-yl)-4-hydroxy-8-methoxy-1-azaspiro[4.5]dec-3-en-2-one” (BAYER INTELLECTUAL PROPERTY GMBH, priority 2011, dated 2016).

The conditions of data set [1]: reference substances with known distribution coefficients; cited from earlier work.
The test system of data set [2] is human ACC1. The data set is described as follows: Human ACC1 enzyme assay (ADP-Glo). Type of data set: biochemical. Conditions: for Ratio IC50s ACC2/ACC1 (respective measurement): pairwise, same dilution series. The procedure:
(§1) Typical concentrations were in the range of 1.75 μl.
(ADP-Glo turns the ADP formed in a reaction into a luminescent signal.)

The nature of data set [3]: Membrane affinity logMA (MA-Transil). Type of data set: physicochemical. Conditions: buffer pH 7.4. On the procedure:
Assays for Determining Membrane Affinity logMA and Protein Binding to Human Serum Albumin (HSA):
Determination of membrane affinity and protein binding to human serum albumin (HSA) was carried out via Transil technology (literature: A. Loidl-Stahlhofen, A. Eckert, T. Hartmann, M. Schöttner J Pharm Sci 90, 599-606 (2001)). Transil® (commercially available from Sovicell in Leipzig, Germany) are glass beads (diameter 10-12 μm) coated with a double-layer membrane of phosphatidylcholine (MA-Transil) or covalently attached human serum albumin (HSA-Transil).
To determine the logMA and the protein binding constant to HSA, the commercially available TRANSIL Intestinal Absorption & HSA Binding Combined Assay Kit was used. This is a 96-well microtitre plate (96 well-MTP) which is filled with Transil and can be used to determine MA-Transil and HSA-Transil binding of in each case eight active compounds. For each active compound, the Transil plate provides a row of 12 wells. Two wells serve as reference and are only filled with buffer pH 7.4. Five further wells contain MA-Transil in various increasing concentrations, the five remaining wells contain HSA-Transil in various increasing concentrations.
To determine binding of an active compound to Transil, the supernatant of the wells with Transil was quantified against the reference solution without Transil via HPLC-MS coupling (HPLC-MS=high performance liquid chromatography/mass spectrometry).
This is how the individual steps of the assay were carried out:
From the internal substance store, the active compounds were delivered in a 96-well MTP. This plate is referred to as mother plate. Each well contained 30 μl of a 10 mmol solution of active compound in DMSO (dimethyl sulphoxide). Two wells at the start (well A1) and at the end of the plate (well H12) were filled with 30 μl of a 10 mmol solution of warfarin in DMSO. Warfarin, whose membrane affinity and binding to HSA is known, serves to check whether the measurement is correct. The mother plate was used to prepare a daughter plate with a 1 to 4000 dilution with a mixture of buffer pH 7.4 and DMSO in a ratio of 1+1. The active compound concentration of each well was 2.5 μmol/liter, the volume of each well was 400 μl.
Using a Hamilton pipetting robot Microlab STAR, the 96 active compounds from the daughter plate were divided onto 12 Transil plates in total. From each well of the daughter plate, 12 times 20 μl were removed. The concentration of each well of the Transil plate was 0.25 μmol/liter, which corresponds to a dilution of 1 to 10. The DMSO content was 5%.
The filled Transil plates were each resuspended for two minutes, then allowed to stand at room temperature for at least two minutes and then centrifuged at 600 rotations per minute for five minutes. The pipetting robot was then used to remove 20 μl of supernatant from each well of the Transil plate and to transfer these to a separate microtitre plate. Here, the supernatants of in each case four Transil plates were pooled in a microtitre plate, so that at the end there were three pooled microtitre plates with in each case 80 μl of solution and an active compound concentration of 62.5 nM per well.
Prior to quantification of the active compounds by HPLC-MS, an optimization has to be carried out for each active compound where by way of a single injection daughter ion and optimum electrical voltages are determined. To this end, the pipetting robot prepared a dilution of the mother plate of 1 to 10 000 000 in an acetonitrile/water mixture in a ratio of 8+2 in a separate microtitre plate. This microtitre plate was measured by HPLC-MS using the software Discovery Quant Optimize from AB Sciex. The three pooled microtitre plates were measured by HPLC-MS using the software Discovery Quant Analyze from AB Sciex. […]

A short description of data set [4]: Plasma protein binding by equilibrium dialysis. Type of data set: in vitro ADME. The procedure: The binding of test substances to plasma proteins is determined by equilibrium dialysis by means of the Ht-dialysis apparatus (96-well) made of Teflon and a semipermeable membrane (regenerated cellulose, MWCO 12-14K). This separates 150 μl each of a plasma side and a buffer side (50 mM phosphate buffer). The test substance is added in 2 concentrations (usually 3 and 0.3 μM) to the plasma side and binds to plasma proteins. The unbound fraction of the test substance passes through the membrane and is distributed on either side until equilibrium is established (after approx. 6-8 h at 37° C.). The substance concentration on the buffer side and the plasma side is determined by LC-MS analysis. For this, both sides are brought by dilution with buffer or plasma to the same matrix (10% plasma) and then precipitated with methanol. The free (unbound) fraction (fu) is calculated from the quotient of the buffer and plasma concentration. Stability tests and recovery tests are run concurrently as controls. In addition, the substance in buffer is dialysed against buffer, to check the nonspecific binding to apparatus and membrane and establishment of equilibrium. Because during incubation the osmotic pressure of the plasma proteins leads to dilution of the plasma (volume shift), this possible error is determined by weighing blank plasma samples and is included in the calculation of fu. Establishment of equilibrium and plasma stability should have a value not lower than 80% and the recovery should be at least 30%. A free fraction of <1% is regarded as high, between 1 and 10% as moderate and >10% as low plasma protein binding.
In general terms: Equilibrium dialysis compares concentrations on both sides of a semipermeable membrane.

Data set [5] concerns the target human ACC1 (Homo sapiens, UniProt Q13085). The data set is described as follows: Human ACC1 enzyme assay (ADP-Glo). Type of data set: biochemical. To be noted: individual measurement (measurement no./preparation no. in table); read-out: ACC 1 IC50. On the procedure: as §1
Data set [6] has as its target human serum albumin (HSA) (Homo sapiens (Human), UniProt P02768). The data set is described as follows: Protein binding to human serum albumin (HSA-Transil). To be noted: buffer pH 7.4. On the procedure:
Assays for Determining Membrane Affinity logMA and Protein Binding to Human Serum Albumin (HSA): Determination of membrane affinity and protein binding to human serum albumin (HSA) was carried out via Transil technology (literature: A. Loidl-Stahlhofen, A. Eckert, T. Hartmann, M. […] Pharm Sci 90, 599-606 (2001)). Transil® (commercially available from Sovicell in Leipzig, Germany) are glass beads (diameter 10-12 μm) coated with a double-layer membrane of phosphatidylcholine (MA-Transil) or covalently attached human serum albumin (HSA-Transil). To determine the logMA and the protein binding constant to HSA, the commercially available TRANSIL Intestinal Absorption & HSA Binding Combined Assay Kit was used. This is a 96-well microtitre plate (96 well-MTP) which is filled with Transil and can be used to determine MA-Transil and HSA-Transil binding of in each case eight active compounds. […] Two wells serve as reference and are only filled with buffer pH 7.4. Five further wells contain MA-Transil in various increasing concentrations, the five remaining wells contain HSA-Transil in various increasing concentrations. To determine binding of an active compound to Transil, the supernatant of the wells with Transil was quantified against the reference solution without Transil via HPLC-MS coupling (HPLC-MS=high performance liquid chromatography/mass spectrometry). This is how the individual steps of the assay were carried out: From the internal substance store, the active compounds were delivered in a 96-well MTP. This plate is referred to as mother plate. […] Warfarin, whose membrane affinity and binding to HSA is known, serves to check whether the measurement is correct. […] Using a Hamilton pipetting robot Microlab STAR, the 96 active compounds from the daughter plate were divided onto 12 Transil plates in total. From each well of the daughter plate, 12 times 20 μl were removed. The concentration of each well of the Transil plate was 0.25 μmol/liter, which corresponds to a dilution of 1 to 10. […] The filled Transil plates were each resuspended for two minutes, then allowed to stand at room temperature for at least two minutes and then centrifuged at 600 rotations per minute for five minutes. The pipetting robot was then used to remove 20 μl of supernatant from each well of the Transil plate and to transfer these to a separate microtitre plate. […] Prior to quantification of the active compounds by HPLC-MS, an optimization has to be carried out for each active compound where by way of a single injection daughter ion and optimum electrical voltages are determined. […] This microtitre plate was measured by HPLC-MS using the software Discovery Quant Optimize from AB Sciex. The three pooled microtitre plates were measured by HPLC-MS using the software Discovery Quant Analyze from AB Sciex. • Sciex Triple Quad 5500 mass spectrometer (from AB Sciex) • PAL Autosampler DLW Option Software: Analyst 1.4 (from AB Sciex) • Discovery Quant Optimize (from AB Sciex) • Discovery Quant Analyze (from AB Sciex) Optimization: […] Column: Poroshell 120 SB-C18 2.7 μm 3×30 mm Injection volume: 2 μl Flow rate: 1 ml/min: […] Evaluation of the HPLC peaks was carried out using Discovery Quant Analyze. The results (logMA and binding constant to HSA Kd) were calculated using an Excel workbook provided by Sovicell.

The mark [7] stands for this setting: human plasma, read-out: fu [%] (human).
The mark [8] stands for this setting: mouse plasma, read-out: fu [%] (mouse).

Where “and” joins values, the source holds several entries; their conditions need not be identical. Identical values can stand only once. Like-named read-outs stand apart in the source and are kept apart here.

Sequence of human serum albumin (HSA) (P02768 25-609): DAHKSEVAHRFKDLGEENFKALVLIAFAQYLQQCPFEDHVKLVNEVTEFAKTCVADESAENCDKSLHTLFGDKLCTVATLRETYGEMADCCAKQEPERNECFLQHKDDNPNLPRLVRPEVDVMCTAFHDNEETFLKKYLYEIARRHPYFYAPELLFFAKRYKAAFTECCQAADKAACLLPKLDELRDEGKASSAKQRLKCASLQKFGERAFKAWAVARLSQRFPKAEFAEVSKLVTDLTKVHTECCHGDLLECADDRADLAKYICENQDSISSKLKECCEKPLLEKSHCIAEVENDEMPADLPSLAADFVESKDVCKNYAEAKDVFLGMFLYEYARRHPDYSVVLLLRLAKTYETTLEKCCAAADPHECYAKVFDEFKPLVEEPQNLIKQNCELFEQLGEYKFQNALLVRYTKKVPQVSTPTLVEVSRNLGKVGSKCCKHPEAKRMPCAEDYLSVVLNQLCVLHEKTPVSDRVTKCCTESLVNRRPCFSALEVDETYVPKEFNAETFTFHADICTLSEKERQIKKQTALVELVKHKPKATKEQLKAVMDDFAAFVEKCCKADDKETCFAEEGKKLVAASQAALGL

Broadly, the log P is a log measure of how a compound divides between an organic and an aqueous phase. As to `COC(=O)c1ccccc1` [methyl benzoate], the “log P” value in data set [1] is on record as 2.1.

Turning to `Cc1ccc(-c2ccc(Cl)c(F)c2)cc1C1=C(O)[C@]2(CC[C@H](C(F)(F)F)CC2)NC1=O` [V.2-b, (5s,8s)-3-(4′-Chloro-3′-fluoro-4-methylbiphenyl-3-yl)-4-hydroxy-8-(trifluoromethyl)-1-azaspiro[4.5]dec-3-en-2-one], the “Selectivity ACC1 vs. ACC2 (mean of the individual measurements ± standard deviation)” value with human ACC1 [2] is 9.4 ± 0.8. Also, the “Ratio IC50s ACC2/ACC1 (respective measurement)” value in the data set on human ACC1 [2] was 8.6 and 10.3. Besides, in data set [3], the logMA came out at 2.55. Moreover, the fraction unbound in data set [4] (setting [7]) turned out to be 0.0005; in data set [4] (setting [8]) it was 0.019.

On to `c1ccc(-c2cccc(-c3ccccc3)n2)cc1` [2,6-diphenylpyridine], for which, in data set [1], the “log P” value is listed as 4.9.

What is called IC50 is the concentration needed to halve the response being measured. The term Kd denotes a measure of binding affinity in units of concentration. As for `Cc1ccc(-c2ccc(Cl)cc2)cc1C1=C(O)[C@]2(CC[C@H](C(F)(F)F)CC2)NC1=O` [V.1-b, (5s,8s)-3-(4′-Chloro-4-methylbiphenyl-3-yl)-4-hydroxy-8-(trifluoromethyl)-1-azaspiro[4.5]dec-3-en-2-one], the IC50 on human ACC1 [5] was 109 nM and 111 nM. Moreover, the “Selectivity ACC1 vs. ACC2 (mean of the individual measurements ± standard deviation)” value with human ACC1 [2] was found to be 9.8 ± 1.4. In addition, the “Ratio IC50s ACC2/ACC1 (respective measurement)” value in the data set on human ACC1 [2] is 11.2 and 8.4. Further, in data set [3], the logMA came to 2.38. The compound also yielded a Kd in data set [6] of 3070 nM. For the same compound, the fraction unbound in data set [4] (setting [7]) was 0.0007; in data set [4] (setting [8]), 0.0241.

With `Clc1ccc(C(c2ccc(Cl)cc2)C(Cl)(Cl)Cl)cc1` [DDT], in data set [1], the “log P” value is given as 6.2.
